pEC50: −log10 of the molar value.
molecular target: T1, acetylcholine muscarinic M1 receptor (Homo sapiens, UniProt P11229); experiment: muscarinic FLIPR assay: potentiation of acetylcholine (EC20)-stimulated intracellular calcium in CHOnfat/hM1 cells; assay type: cell-based; conditions: 4 min preincubation, then EC20 acetylcholine (3 nM final), read-out: IP Value (inflection point)
T1 construct: expressed in transfected cells; host or cells: CHOnfat (CHO cells; also called CHOK1/hM1), selected with Geneticin
T1 sequence (P11229 1-460): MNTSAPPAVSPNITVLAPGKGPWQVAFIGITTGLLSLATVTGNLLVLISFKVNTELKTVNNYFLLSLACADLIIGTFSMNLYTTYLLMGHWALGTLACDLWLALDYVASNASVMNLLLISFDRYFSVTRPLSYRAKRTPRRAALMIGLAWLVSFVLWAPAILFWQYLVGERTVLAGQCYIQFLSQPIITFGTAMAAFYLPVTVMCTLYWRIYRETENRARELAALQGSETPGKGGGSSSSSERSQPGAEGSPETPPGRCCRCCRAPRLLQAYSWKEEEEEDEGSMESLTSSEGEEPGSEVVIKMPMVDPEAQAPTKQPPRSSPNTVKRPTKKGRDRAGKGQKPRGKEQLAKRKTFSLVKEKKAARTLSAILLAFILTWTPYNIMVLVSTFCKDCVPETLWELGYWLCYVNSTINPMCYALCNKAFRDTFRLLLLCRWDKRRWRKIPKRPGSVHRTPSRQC
Experimental: The assay studies the effect of one or several concentrations of test compounds on basal or acetylcholine-stimulated Ca^2+ levels using FLIPR.
Compounds are prepared and subjected to a preincubation period of 4 min. Thereafter, a single EC20 concentration of acetylcholine is added to each well (3 nM final). The intracellular Ca^2+ level of each sample is measured and compared to an acetylcholine control to determine any modulatory activity.
Cells: CHOnfat/hM1, hM2, hM3 or hM4 cells are plated 24 hr before the assay at a density of 18,000 cells/well (100 μL) in a 384 well plate. CHOnfat/hM1 and CHOnfat/hM3 Growth Medium: 90% DMEM (Hi Glucose); 10% HI FBS; 2 mM L-glutamine; 0.1 mM NEAA; Pen-Strep; and 1 mg/ml Geneticin, are added. For M2Gqi5CHOnfat and M4Gqi5CHOnfat cells, an additional 600 μg/ml hygromycin is added.
Equipment: 384 well plate, 120 μL addition plate; 96-well Whatman 2 ml Uniplate Incubator, 37° C., 5% CO2; Skatron EMBLA-384 Plate Washer; Multimek Pipetting System; Genesis Freedom 200 System; Mosquito System; Temo Nanolitre Pipetting System; and FLIPR^384 Fluorometric Imaging Plate Reader System are used.
Buffers. Assay Buffer: Hanks Balanced Salt Solution, with 20 mM Hepes, 2.5 mM Probenecid (Sigma P-8761) first dissolved in 1N aqueous NaOH, 1% Bovine Serum Albumin (Sigma A-9647). Dye Loading Buffer: Assay Buffer plus 1% Fetal Bovine Serum and Fluo-4AM/Pluronic Acid Mixture. 2 mM Fluo-4AM ester stock in DMSO (Molecular Probes F-14202) Concentration of 2 μM in buffer for a final concentration of 1 μM in Assay. 20% Pluronic Acid Solution stock, with a concentration of 0.04% in Buffer, 0.02% in Assay.
65 μl of 2 mM Fluo-4AM are mixed with 130 μL of 20% Pluronic Acid. The resulting solution and 650 μL FBS is added to the assay buffer for a total volume of 65 mL. Positive Controls: 4-Br-A23187: 10 mM in DMSO; final concentration 10 μM. Acetylcholine: 10 mM in water, working stock at both 20 μM and 30 μM in assay buffer, final concentration of 10 μM. This is used to check the maximum stimulation of the CHOK1/hM1 cells. 20 μM (2×) acetylcholine is added in the preincubation part of the assay, and the 30 μM (3×) stock is added in the second part. (EC20) Acetylcholine: 10 mM in water, working stock of 9 nM (3×), and final concentration in assay is 3 nM. This is used after the preincubation with test compounds. Addition of the EC20 Acetylcholine to each well with a test compound will ascertain any modulator activity. 24 wells contain 3 nM Acetylcholine alone as a control.
Determining Activity of Putative Compounds:
Screening Plate: Compounds are titrated in 96-well plates (columns 2-11), 100% DMSO, started at a concentration of 15 mM (150× stock concentration), and 3-fold serial dilutions using Genesis Freedom200 System. Four 96-well plates are combined into a 384-well plate using Mosquito Nanolitre Pipetting System by transferring 1 μl of serial diluted compounds to each well, and 1 mM acetylcholine (100× stock concentration) were added as a control. Using Temo, 49 μl assay buffer is added to each well of the 384-well plate right before assay.
In a 96-well Whatman 2 ml Uniplate, 9 nM Acetylcholine (3×) is pipetted into wells corresponding to the screening compounds and into control wells. The 30 μM acetylcholine control (3×) is added into control wells and the 3× agonist plate is transferred into a 384-well plate.
Cells are washed three times with 100 μL of buffer, leaving 30 μL of buffer in each well. Using Multimek, 30 μL of Dye Loading Buffer is added into each well and incubated at 37° C., 5% CO2 for up to one hr.
After 60 min, the cells are washed three times with 100 μL of buffer, leaving 30 μL of buffer in each well. The cell plate, screening plate, and agonist addition plates are placed on the platform in the FLIPR and the door is closed. A signal test to check background fluorescence and basal fluorescence signal is performed. Laser intensity is adjusted if necessary. […]

pEC50	SMILES
6.29	O=C(O)c1cc(CN2CCc3cc(Cl)ccc3C2)c2ccccn2c1=O [Example 1, 1-[(6-chloro-3,4-dihydroisoquinolin-2(1H)-yl)methyl]-4-oxo-4H-quinolizine-3-carboxylic acid]
5.77	O=C(O)c1cc(CN2CCc3ccccc3C2)c2ccccn2c1=O [Example 6]
5.05	O=C(O)c1cc(CN2Cc3ccccc3C[C@@H]2CO)c2ccccn2c1=O [Example 7]
6.54	CCOC(=O)C1c2ccccc2CCN1Cc1cc(C(=O)O)c(=O)n2ccccc12 (centres unmarked) [Example 11]
7.08	O=C(O)c1cc(CN2CCc3ccccc3C2c2ccncc2)c2ccccn2c1=O (centres unmarked) [Example 17]
6.82	O=C(O)c1cc(CN2CCc3ccccc3C2c2ccccc2F)c2ccccn2c1=O (centres unmarked) [Example 18]
6.05	O=C(O)c1cc(CN2CCc3cnccc3C2)c2ccccn2c1=O [Example 54]
5.38	O=C(O)c1cc(CN2CCn3c(-c4ccccc4)cnc3C2)c2ccccn2c1=O [Example 69]
5.21	O=C(O)c1cc(CN2CCc3cc(-c4ccccc4)ccc3C2)c2ccccn2c1=O [Example 87, 4-Oxo-1-[(6-phenyl-3,4-dihydroisoquinolin-2(1H)-yl)methyl]-4H-quinolizine-3-carboxylic acid]
4.92	N#Cc1ccc2c(c1)CCN(Cc1cc(C(=O)O)c(=O)n3ccccc13)C2 [Example 88, 1-[(6-cyano-3,4-dihydroisoquinolin-2(1H)-yl)methyl]-4-oxo-4H-quinolizine-3-carboxylic acid]
5.17	Cc1ccc2c(c1)CCN(Cc1cc(C(=O)O)c(=O)n3ccccc13)C2 [Example 89, 1-[(6-methyl-3,4-dihydroisoquinolin-2(1H)-yl)methyl]-4-oxo-4H-quinolizine-3-carboxylic acid]

— patent US8173672B2, “Quinolizidinone M1 receptor positive allosteric modulators” (Merck Sharp & Dohme Corp., priority 2008, dated 2012)
